The values below come from patent US20160106789A1, “Inhibition of Neurodegenerative Disease by Grape Seed Extract, Green Tea Extract and Probiotic Bacteria” (priority 2013, published 2016).

Structures can show the parent of a compound that is named as a salt.

One assay deals with Alzheimer patients. The experiment in a line: Effect on an Alzheimer patient: cognitive state and mini-mental state examination (MMSE). Type of assay: in vivo, human. The note with it: daily, discontinued after two weeks; person, MMSE 13. The method, then: Six weeks after the diagnosis, the patient's condition continued to deteriorate. The patient was administered memantine hydrochloride (Ebixa® tablet), an antidementia medicine, on a daily basis. Blood-pressure reducing medication was concomitantly administered and the blood pressure was measured to be on the average of 130/70 systolic/diastolic. However, the patient's deterioration appeared to be unaffected by the drug and administration of Ebixa was consequently discontinued after two weeks.
The following four months were characterized by sporadic memory lapses typical of a moderately severe affliction as well as behavioral deteriorations that occurred from time to time
Consequently, the blood-pressure reducing medication was discontinued and the administration of GSE was reduced to one capsule per day (300 mg) as GSE is known to reduce blood pressure.

A further assay concerns amyloid fibrils. The note with it: in-vitro; cited from earlier work.
For the next assay, the system named is β-amyloid peptides. The note with it: cited from earlier work.
The nature of assay [1]: General effect on mental faculties (memory) of a first subject. Type of assay: in vivo, human. The note with it: 100 mg once daily over 40 days, after nocturnal sleep, same subject after ceasing GSE. The method, then: A first subject consumed a capsule containing 300 mg of Meganatural-BP® over a period of 18 months, once daily, immediately after nocturnal sleep. […] The same subject ceased to consume GSE and immediately subsequent consumed capsules of 100 mg EGCG (Lyan) over a period of 40 days, once daily, immediately after nocturnal sleep. 300 mg of Meganatural-BP® and 60 mg of EGCG capsules were concomitantly administered to the same subject, immediately after nocturnal sleep, following the EGCG regime.

In the case of `CC12CC3CC(C)(C1)CC(N)(C3)C2` [memantine hydrochloride], the “patient's deterioration” value with Alzheimer patients is “unaffected”.

With Epigallocatechin-3-gallate [EGCG], in the assay with amyloid fibrils, the “formation of β-sheet rich aggregation products such as amyloid fibrils” value is “prevented”. In addition, the “generation of β-amyloid peptides” value with β-amyloid peptides was “reduces”. Also, in assay [1], the improvement of memory entry is on record as “No improvement of memory”.
